Data reported in article PMC10850190, “Bifidobacterial GH146 β-L-arabinofuranosidase for the removal of β1,3-L-arabinofuranosides on plant glycans” (Applied Microbiology and Biotechnology, 2024).

Target: T1, Bll1HypBA1 (Bifidobacterium longum, UniProt E8MGH8)
T1 construct: gene hypBA1; GH127 enzyme prepared as in earlier reports; homodimer
T1 sequence (E8MGH8 1-658): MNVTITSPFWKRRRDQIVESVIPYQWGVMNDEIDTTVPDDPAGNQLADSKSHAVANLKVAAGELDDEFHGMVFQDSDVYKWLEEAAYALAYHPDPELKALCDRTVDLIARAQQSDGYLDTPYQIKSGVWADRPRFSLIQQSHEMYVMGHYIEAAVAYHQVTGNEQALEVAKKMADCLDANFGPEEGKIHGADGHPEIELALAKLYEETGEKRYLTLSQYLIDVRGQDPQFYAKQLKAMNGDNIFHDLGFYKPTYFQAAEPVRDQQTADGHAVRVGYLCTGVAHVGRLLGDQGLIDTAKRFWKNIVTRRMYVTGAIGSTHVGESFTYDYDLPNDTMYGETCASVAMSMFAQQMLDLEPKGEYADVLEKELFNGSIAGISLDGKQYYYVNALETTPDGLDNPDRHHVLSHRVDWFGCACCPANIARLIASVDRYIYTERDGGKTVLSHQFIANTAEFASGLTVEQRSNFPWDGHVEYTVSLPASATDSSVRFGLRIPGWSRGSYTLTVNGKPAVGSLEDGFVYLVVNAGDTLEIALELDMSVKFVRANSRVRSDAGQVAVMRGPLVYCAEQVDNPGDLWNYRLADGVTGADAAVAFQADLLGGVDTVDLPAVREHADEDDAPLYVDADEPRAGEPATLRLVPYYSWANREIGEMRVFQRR
Assay: TLC, released L-arabinose
Format: biochemical
Details: 50 mM sodium acetate pH 5.5; 37 °C; 16 h

## CO[C@@H]1O[C@@H](CO[C@H]2O[C@@H](CO)[C@H](O)[C@H]2O)[C@H](O)[C@H]1O [β5, Araf-β1,5-Araf-α-OMe]
  TLC, released L-arabinose: Conversely, Bll1HypBA1 completely hydrolyzed these substrates

## CO[C@@H]1O[C@@H](CO)[C@H](O)[C@H]1O[C@H]1O[C@@H](CO)[C@H](O)[C@H]1O [β2, Araf-β1,2-Araf-α-OMe]
  TLC, released L-arabinose: Conversely, Bll1HypBA1 completely hydrolyzed these substrates
